Assay results published in patent US6964959B2, “Use of a methylol-containing compound to treat tumors” (Carter Wallace, Inc., priority 1999, dated 2005).
“Also recorded” adds a separate entry of the source.

Legend:
[1] = tested on: SKOV-3 human ovarian tumor xenografts; assay: i.p. SKOV-3 human ovarian tumor xenografts in female nude mice; assay type: in vivo
Source text: Fourteen days following the final Taurolidine injection, mice in all groups were sacrificed and the peritoneal cavity examined for the presence of tumors. Each experimental was repeated three times and the pooled number of animals in each group ranged from 15-21.
Fourteen days following the final Taurolidine injection, mice in all groups were sacrificed, i.p. ovarian tumor xenografts removed and tumor weighed. Each experiment was repeated three times and the pooled number of animals in each group ranged from 15-21. Each bar represents the mean (±SE) tumor weight of 15-21 animals. ***p≦0.001, ****p≦0.0001.
To evaluate therapeutic effectiveness, mice received a single intraperitoneal injection of 5×10^6 SKOV-3 cells in a volume of 0.5 ml. Immediately thereafter, mice were randomly divided into treatment groups of 7 animals. […] Control animals received 1 ml injections of 5% Kollidon 17PF alone. Animals were examined daily and body weight recorded twice weekly. […] The mean tumor weight for each treatment group was calculated and statistical analysis of differences in the mean tumor weight between treatment groups employed the Student's t-test. p-values of ≦0.05 were considered significant.

PA-1 = assay: Annexin-V FITC binding (phosphotidylserine externalization), PA-1; assay type: cell-based, human; settings: 24 h exposure
Protocol: (§1) Three×10^5 cells were seeded in plastic tissue culture flasks. […] Control cultures received an appropriate volume of Kollidine-17P. After an additional 24 h, cells were harvested and phosphotidylserine externalization determined by assessing Annexin-V FITC binding using cytofluorometric techniques. Each bar represents the mean±SE of four determinations. **p≦0.01, ***p≦0.001
(§2) Cell membrane phosphotidylserine externalization, as a reflection of the potential induction of apoptosis, was assessed by flow cytometry methods using the ApoAlert® Annexin-V/FITC assay kit. Briefly, 1×10^6 cells were incubated for 24 h in tissue culture medium containing serum. […] Control cultures received 5% Kollidon 17PF alone. Twenty-four hours later, all cells were harvested by trypsinization. The harvested cells were resuspended in 200 μl of binding buffer and then incubated for 5-15 min in a solution containing 1 μg/ml Annexin-V FITC at room temperature in the dark. The cells were then analyzed to quantitate Annexin-V binding by cytofluorometric techniques that utilized FACScan using the ModFit LT program with statistical analysis as described above.

human cancer cell lines = assay: Growth inhibition of human cancer cell lines, 3-day exposure; assay type: cell-based; settings: 72 h, read-out: concentration required to inhibit tumor cell growth (IC50)
Protocol: Parallel studies were carried out to assess whether disruption of cell adhesion played a role in the cytotoxic activity.

PARP = assay: Western-blot analysis of PARP cleavage, PA-1 cells; assay type: cell-based, human; settings: 24 h exposure to 50 or 100 μM
Protocol: Two×10^6 cells were seeded in 150 cm^2 tissue culture flasks. […] After an additional twenty-four hours, cells were harvested, cell number determined, and aliquots derived from equal cell numbers generated from each exposure condition. Total proteins from these whole cell lysates were separated by SDS-PAGE and transferred to nitrocellulose filters. Filters were then immunoblotted to detect intact PARP protein and cleavage fragments by using the clone C-2-10 mouse monoclonal anti-PARP antibody (Zymed Laboratories, San Francisco, Calif.). The resulting protein-antibody complexes were visualized by chemiluminescence techniques.
Western-blot analysis was used to assess of PARP cleavage. Two×10^6 cells were seeded into separate 75 cm^2 tissue culture flasks containing 20 ml of tissue culture media plus serum. […] Twenty-four hours after the addition of Taurolidine, cells were harvested, cell number determined, and aliquots containing an equal cell number were generated from each exposure condition. Total proteins from whole cell lysates generated from these aliquots were separated by SDS-PAGE and electrotransferred to nitrocellulose filters. Filters were then processed to detect intact PARP protein and cleavage fragments by using the clone C-2-10 mouse monoclonal anti-PARP antibody (Zymed Laboratories, San Francisco, Calif.). […]

NIH-3T3 = assay: Flow cytometry cell cycle distribution / DNA debris, NIH-3T3; assay type: cell-based, murine
Protocol: Three×10^5 cells were seeded in plastic tissue culture flasks. […] Control cultures received an appropriate volume of Kollidine-17P. […] The percentage of DNA debris in the sub-G0/G1 region was assessed using cytofluorometric techniques. Each bar represents the mean (±SE) of three determinations. **p≦0.01, ***p≦0.001, ****p≦0.0001
For flow cytometry studies, 1×10^6 PA-1, SKOV-3, or NIH-3T3 cells were incubated for 24 h in appropriate media containing serum. […] Control cultures for each cell line were incubated in media containing 40 μl of 5% Kollidon 17PF alone. […] For example, harvested cells were resuspended in ice cold phosphate-buffered saline at a final cell density of 2×10^6 cells/ml. The cells then were stained for 30 min at room temperature in the dark with a solution of 0.05 mg/ml propidium iodide, 0.6% Igepal, and 1% sodium citrate. Flow cytometry was performed by FACScan (Becton Dickinson, Plymouth, England) using the ModFit LT program (Becton Dickinson). Statistical analysis was performed with the Kruskal Wallis non-parametric ANOVA test followed by Dunn's multiple comparisons test using Instat.
Three×10^5 cells were seeded in plastic tissue culture flasks. […] Control cultures received an appropriate volume of Kollidine-17P. After an additional 48 h, cells were harvested, stained with propidium iodide, and cell cycle distribution assessed using cytofluorometric techniques. Each value represents the percentage of cells in the noted cell cycle phases and is the mean±SEM of three determinations.

[2] = tested on: TNF; interleukins 1, 6, and 10; VEGF; TGF; assay: Angiogenesis factors in patients with metastatic colon cancer; assay type: in vivo, human; settings: treated subjects compared to subjects receiving placebo
Protocol: Patients with metastatic colon cancer were treated with taurolidine and several factors controlling angiogenesis were measured.

SKOV-3 = assay: Annexin-V FITC binding (phosphotidylserine externalization), SKOV-3; assay type: cell-based, human; settings: 24 h exposure
Protocol: as §1, §2

[3] = tested on: Bcl2-over expressing HL-60 cells; assay: Apoptosis induction in Bcl2-over expressing HL-60 cells; assay type: cell-based, human
Source text: Human leukemia HL-60 cells, which were genetically-engineered to resist apoptotic induction, were induced to apoptosis independently (downstream) of the bcl-2/bax (anti-death gene) point in the signal transduction cascade.

O=S1(=O)CCN(CN2CCS(=O)(=O)NC2)CN1 [Taurolidine, Bis-(1,1-dioxoperhydro-1,2,4-thiadiazinyl-4)methane]
ascites formation ([1]; 20 mg/mouse/injection i.p. x 3 d starting on the day of tumor cell injection): no evidence of ascites formation
tumor formation and growth ([1]; 3 d 20 mg/mouse i.p. regimen, nude mice bearing i.p. human ovarian tumor xenografts): significant inhibition of both tumor formation and growth; also recorded: significantly inhibited tumor development and growth; also recorded: highly effective and inhibited tumor formation
tumor growth ([1]; single cycle initiated 5 d after tumor cell injection (established i.p. tumors)): significantly inhibiting tumor growth
mean tumor size in treated mice vs controls ([1]; therapy delayed for up to 3 d after tumor cell injection): significantly smaller than in controls
increase in Annexin-V binding (Annexin-V positive cells) (PA-1): 4 fold
IC50 (human cancer cell lines): 12.5 to 50 µM
PARP cleavage (PARP): induced PARP cleavage; also recorded: resulted in PARP cleavage
cell cycle kinetics and distribution (NIH-3T3; 3T3, 24-hour exposure): significantly reduced the percentage of cells in both the S- and G2/M-phases
effect on cell cycle distribution (NIH-3T3; NIH-3T3, 48 h exposure): increased the percentage of cells in S-phase, decreased the percentage of cells in G0/G1; also recorded: decreased the percentage of cells in G0/G1 and increased the percentage of cells in S
DNA debris in the sub-G0/G1 region (NIH-3T3; NIH-3T3, 48 h exposure, 25-100 μM): did not increase DNA debris; also recorded: did not significantly affect the appearance of DNA debris
factors controlling the growth of blood vessels (TNF; interleukins 1, 6, and 10; VEGF; TGF) [2]: found to be decreased
increase in Annexin-V binding (Annexin-V positive cells) (SKOV-3): 3 fold
induction of apoptosis [3]: capable of inducing apoptosis, but with a delayed onset
